Like-named read-outs stand apart in the source and are kept apart here. Blank lines part the entries; values can stand above or below the molecule they belong to.
Legend:
[1] = tested on: Key Grass and Sedge Weeds as well as Grass Crops; assay: Post-emergent Test II herbicidal activity (Table 6); assay type: in vivo; conditions: post-emergence, 336 h; for pest or weed control at 70 g/ha: application rate 70 g ai/ha; for pest or weed control at 140 g/ha: application rate 140 g ai/ha
Procedure: (§1) Post-emergent Test II: Seeds or nutlets of the desired test plant species were planted in Sun Gro Metro-Mix® 360 planting mixture, which typically has a pH of 6.0 to 6.8 and an organic matter content of about 30 percent, in plastic pots with a surface area of 64 square centimeters. When required to ensure good germination and healthy plants, a fungicide treatment and/or other chemical or physical treatment was applied. The plants were grown for 7-21 d in a greenhouse with an approximate 15 h photoperiod which was maintained at about 23-29° C. during the day and 22-28° C. during the night. Nutrients and water were added on a regular basis and supplemental lighting was provided with overhead metal halide 1000-Watt lamps as necessary. The plants were employed for testing when they reached the first or second true leaf stage.
(§2) A weighed amount, determined by the highest rate to be tested, of each test compound was placed in a 25 mL glass vial and was dissolved in 4 mL of a 97:3 v/v mixture of acetone and DMSO to obtain concentrated stock solutions. […] The concentrated stock solutions obtained were diluted with 20 mL of an aqueous mixture containing acetone, water, isopropyl alcohol, DMSO. Atplus 411F crop oil concentrate, and Triton® X-155 surfactant in a 48.5:39:10:1.5:1.0:0.02 v/v ratio to obtain spray solutions containing the highest application rates. Additional application rates were obtained by serial dilution of 12 mL of the high rate solution into a solution containing 2 mL of 97:3 v/v mixture of acetone and DMSO and 10 mL of an aqueous mixture containing acetone, water, isopropyl alcohol, DMSO, Atplus 411F crop oil concentrate, and Triton X-155 surfactant in a 48.5:39:10:1.5:1.0:0.02 v/v ratio to obtain ½×, ¼×, ⅛× and 1/16× rates of the high rate. Compound requirements are based upon a 12 mL application volume at a rate of 187 liters per hectare (L/ha). Formulated compounds were applied to the plant material with an overhead Mandel track sprayer equipped with 8002E nozzles calibrated to deliver 187 L/ha over an application area of 0.503 square meters at a spray height of 18 inches (43 cm) above the average plant canopy height. Control plants were sprayed in the same manner with the solvent blank.
(§3) The treated plants and control plants were placed in a greenhouse as described above and watered by subirrigation to prevent wash-off of the test compounds. After 14 d, the condition of the test plants as compared with that of the untreated plants was determined visually and scored on a scale of 0 to 100 percent where 0 corresponds to no injury and 100 corresponds to complete kill.

[2] = tested on: Key Broadleaf Weed and Crop Species; assay: Post-emergent Test II herbicidal activity (Table 5); assay type: in vivo; conditions: post-emergence, 336 h, 14 days after application
Procedure: as §1, §2, §3

[3] = CYPES: yellow nutsedge (Cyperus esculentus), read-out: Visual Growth Reduction (%) 14 Days After Application, CYPES
[4] = DIGSA: crabgrass (Digitaria sanguinalis), read-out: Visual Growth Reduction (%) 14 Days After Application, DIGSA
[5] = ECHCG: barnyardgrass (Echinochloa crus-galli), read-out: Visual Growth Reduction (%) 14 Days After Application, ECHCG
[6] = ORYSA: rice (Oryza sativa), read-out: Visual Growth Reduction (%) 14 Days After Application, ORYSA
[7] = SETFA: giant foxtail (Setaria faberi), read-out: Visual Growth Reduction (%) 14 Days After Application, SETFA
[8] = SORVU: grain sorghum (Sorghum vulgare), read-out: Visual Growth Reduction (%) 14 Days After Application, SORVU
[9] = TRZSS (wheat, Triticum aestivum), read-out: Visual Growth Reduction (%) 14 Days After Application, TRZSS
[10] = ZEAMX: maize, corn (Zea mays), read-out: Visual Growth Reduction (%) 14 Days After Application, ZEAMX
[11] = Triticum aestivum, TRZSS (wheat), read-out: Visual Growth Reduction (%) 14 Days After Application, TRZSS

melting point: 171 to 172 °C
SMILES: Cc1c(-c2ccc(I)c(F)c2)nc(C(=O)O)c(Cl)c1N [Compound 87, 4-Amino-3-chloro-6-(3-fluoro-4-iodophenyl)-5-methylpicolinic acid]
pest or weed control at 70 g/ha [1, 3]: 0 to 29% | pest or weed control at 140 g/ha [1, 3]: 45 to 59% | pest or weed control at 70 g/ha [1, 4]: 60 to 74% | pest or weed control at 140 g/ha [1, 4]: 60 to 74% | pest or weed control at 70 g/ha [1, 5]: 75 to 84% | pest or weed control at 140 g/ha [1, 5]: 75 to 84% | pest or weed control at 70 g/ha [1, 6]: 0 to 29% | pest or weed control at 140 g/ha [1, 6]: 0 to 29% | pest or weed control at 70 g/ha [1, 7]: 60 to 74% | pest or weed control at 140 g/ha [1, 7]: 75 to 84% | pest or weed control at 70 g/ha [1, 8]: 60 to 74% | pest or weed control at 140 g/ha [1, 8]: 60 to 74% | pest or weed control at 70 g/ha [1, 9]: 60 to 74% | pest or weed control at 140 g/ha [1, 9]: 60 to 74% | pest or weed control at 70 g/ha [1, 10]: 60 to 74% | pest or weed control at 140 g/ha [1, 10]: 60 to 74% | pest or weed control at 70 g/ha ([2]; ABUTH: velvetleaf (Abutilon theophrasti), 70 g ai/ha, post-emergent, read-out: Visual Growth Reduction (%) 14 Days After Application ABUTH): 85 to 94% | pest or weed control at 140 g/ha ([2]; ABUTH: velvetleaf (Abutilon theophrasti), 140 g ai/ha, post-emergent, read-out: Visual Growth Reduction (%) 14 Days After Application ABUTH): 85 to 94% | pest or weed control at 70 g/ha ([2]; BRSNN: oilseed-rape, canola (Brassica napus), 70 g ai/ha, post-emergent, read-out: Visual Growth Reduction (%) 14 Days After Application BRSNN): 95 to 100% | pest or weed control at 140 g/ha ([2]; BRSNN: oilseed-rape, canola (Brassica napus), 140 g ai/ha, post-emergent, read-out: Visual Growth Reduction (%) 14 Days After Application BRSNN): 95 to 100% | pest or weed control at 70 g/ha ([2]; CHEAL: lambsquarters (Chenopodium album), 70 g ai/ha, post-emergent, read-out: Visual Growth Reduction (%) 14 Days After Application CHEAL): 85 to 94% | pest or weed control at 140 g/ha ([2]; CHEAL: lambsquarters (Chenopodium album), 140 g ai/ha, post-emergent, read-out: Visual Growth Reduction (%) 14 Days After Application CHEAL): 85 to 94% | pest or weed control at 70 g/ha ([2]; EPHHL: wild poinsettia (Euphorbia heterophylla), 70 g ai/ha, post-emergent, read-out: Visual Growth Reduction (%) 14 Days After Application EPHHL): 0 to 29% | pest or weed control at 140 g/ha ([2]; EPHHL: wild poinsettia (Euphorbia heterophylla), 140 g ai/ha, post-emergent, read-out: Visual Growth Reduction (%) 14 Days After Application EPHHL): 0 to 29% | pest or weed control at 70 g/ha ([2]; HELAN: sunflower (Helianthus annuus), 70 g ai/ha, post-emergent, read-out: Visual Growth Reduction (%) 14 Days After Application HELAN): 85 to 94% | pest or weed control at 140 g/ha ([2]; HELAN: sunflower (Helianthus annuus), 140 g ai/ha, post-emergent, read-out: Visual Growth Reduction (%) 14 Days After Application HELAN): 85 to 94% | pest or weed control at 70 g/ha ([2]; VIOTR: wild pansy (Viola tricolor), 70 g ai/ha, post-emergent, read-out: Visual Growth Reduction (%) 14 Days After Application VIOTR): 60 to 74% | pest or weed control at 140 g/ha ([2]; VIOTR: wild pansy (Viola tricolor), 140 g ai/ha, post-emergent, read-out: Visual Growth Reduction (%) 14 Days After Application VIOTR): 85 to 94%

melting point: 147 to 149 °C
SMILES: Nc1c(F)c(-c2ccc(OC(F)F)c(F)c2)nc(C(=O)O)c1Cl [Compound 92, 4-amino-3-chloro-6-(4-(difluoromethoxy)-3-fluorophenyl)-5-fluoropicolinic acid]
pest or weed control at 70 g/ha [1, 11]: 30 to 44% | pest or weed control at 140 g/ha [1, 11]: 45 to 59% | pest or weed control at 70 g/ha [1, 3]: 0 to 29% | pest or weed control at 140 g/ha [1, 3]: 0 to 29% | pest or weed control at 70 g/ha [1, 4]: 60 to 74% | pest or weed control at 140 g/ha [1, 4]: 60 to 74% | pest or weed control at 70 g/ha [1, 6]: 0 to 29% | pest or weed control at 140 g/ha [1, 6]: 0 to 29% | pest or weed control at 70 g/ha [1, 8]: 30 to 44% | pest or weed control at 140 g/ha [1, 8]: 45 to 59% | pest or weed control at 70 g/ha [1, 10]: 60 to 74% | pest or weed control at 140 g/ha [1, 10]: 60 to 74% | pest or weed control at 70 g/ha ([2]; ABUTH: velvetleaf (Abutilon theophrasti), application rate 70 g ai/ha, read-out: Visual Growth Reduction (%) 14 Days After Application, ABUTH): 0 to 29% | pest or weed control at 140 g/ha ([2]; ABUTH: velvetleaf (Abutilon theophrasti), application rate 140 g ai/ha, read-out: Visual Growth Reduction (%) 14 Days After Application, ABUTH): 0 to 29% | pest or weed control at 70 g/ha ([2]; AMARE: redroot pigweed (Amaranthus retroflexus), application rate 70 g ai/ha, read-out: Visual Growth Reduction (%) 14 Days After Application, AMARE): 45 to 59% | pest or weed control at 140 g/ha ([2]; AMARE: redroot pigweed (Amaranthus retroflexus), application rate 140 g ai/ha, read-out: Visual Growth Reduction (%) 14 Days After Application, AMARE): 60 to 74% | pest or weed control at 70 g/ha ([2]; BRSNN: oilseed-rape, canola (Brassica napus), application rate 70 g ai/ha, read-out: Visual Growth Reduction (%) 14 Days After Application, BRSNN): 30 to 44% | pest or weed control at 140 g/ha ([2]; BRSNN: oilseed-rape, canola (Brassica napus), application rate 140 g ai/ha, read-out: Visual Growth Reduction (%) 14 Days After Application, BRSNN): 45 to 59% | pest or weed control at 70 g/ha ([2]; CHEAL: lambsquarters (Chenopodium album), application rate 70 g ai/ha, read-out: Visual Growth Reduction (%) 14 Days After Application, CHEAL): 85 to 94% | pest or weed control at 140 g/ha ([2]; CHEAL: lambsquarters (Chenopodium album), application rate 140 g ai/ha, read-out: Visual Growth Reduction (%) 14 Days After Application, CHEAL): 85 to 94% | pest or weed control at 70 g/ha ([2]; EPHHL: wild poinsettia (Euphorbia heterophylla), application rate 70 g ai/ha, read-out: Visual Growth Reduction (%) 14 Days After Application, EPHHL): 95 to 100% | pest or weed control at 140 g/ha ([2]; EPHHL: wild poinsettia (Euphorbia heterophylla), application rate 140 g ai/ha, read-out: Visual Growth Reduction (%) 14 Days After Application, EPHHL): 95 to 100% | pest or weed control at 70 g/ha ([2]; HELAN: sunflower (Helianthus annuus), application rate 70 g ai/ha, read-out: Visual Growth Reduction (%) 14 Days After Application, HELAN): 60 to 74% | pest or weed control at 140 g/ha ([2]; HELAN: sunflower (Helianthus annuus), application rate 140 g ai/ha, read-out: Visual Growth Reduction (%) 14 Days After Application, HELAN): 75 to 84% | pest or weed control at 70 g/ha ([2]; VIOTR: wild pansy (Viola tricolor), application rate 70 g ai/ha, read-out: Visual Growth Reduction (%) 14 Days After Application, VIOTR): 0 to 29% | pest or weed control at 140 g/ha ([2]; VIOTR: wild pansy (Viola tricolor), application rate 140 g ai/ha, read-out: Visual Growth Reduction (%) 14 Days After Application, VIOTR): 0 to 29%

Source: patent US9113629B2, “4-amino-6-(4-substituted-phenyl)-picolinates and 6-amino-2-(4-substituted-phenyl)-pyrimidine-4-carboxylates and their use as herbicides” (DOW AGROSCIENCES LLC, priority 2013, dated 2015)
